According to US20100278938A1, “GENETIC TEST AND PET DIET” (MARS, INC, priority 2007, published 2010):

Assay: Pharmacokinetic study of oral zinc gluconate, plasma zinc by atomic absorption spectrometry
Type: in vivo, Labrador Retrievers
Set-up: unit not given here
Description: Two unrelated nine-year old, healthy Labrador Retrievers (1 female and 1 male) were used in a pharmacokinetic study. Food was withheld for a 12-hour period prior to oral administration of zinc, and during the initial 6-hour testing period. Water was freely available. […] Heparinized blood samples (4 ml) were collected from the jugular vein before dosing (time 0) and 15, 30, 45, 60, 90, 120 minutes, and 4, 8, 12 and 24 hours after application of the drug. Plasma was stored at −20° C. until analysis for zinc using atomic absorption spectrometry.
In addition the test was used to detect a difference between group-1 and group-2 before the study, at recheck-1, and at recheck-2 (significance level p<0.05).

## zinc gluconate
Dog 1, oral 10 mg/kg
  K01: absorption rate constant: 0.5672
  K10: elimination rate constant: 0.05373
Dog 2, oral 5 mg/kg
  K01: absorption rate constant: 1.161
  K10: elimination rate constant: 0.03789
